1 compound from US12138398B2, “Methods and devices for providing a stimulus to a subject to induce gamma oscillations” (Massachusetts Institute of Technology, priority 2015, dated 2024) can be followed below.

Assay [1] concerns CK-p25 Tg mice. In words: Cortical (Hoechst) and neuronal (NeuN) layer thickness in CK-p25 Tg mice. In kind it is in vivo, mouse. The following applies: for thickness of neuronal layer of the insular cortex / thickness of SS1-neuronal layer: NeuN; for thickness of SS1-neuronal layer / thickness of SS1-cortical layer: somatosensory cortex.
Assay [2] concerns CK-p25 Tg mice. Nature of the assay: γH2AX-positive cells (DNA damage) in CK-p25 Tg mice. Type of assay: in vivo, mouse. Here is the method:
A study was conducted to examine the effect of gamma exposure and/or administration in accordance with some embodiments on DNA damage and neuronal loss in the visual cortex of a subject. For the study, an inducible mouse model of p25 accumulation (i.e., a creatine kinase carboxyl-terminal fragment p25 Tg mouse (CK-p25 Tg mouse)) was used. […] A study was conducted to compare groups of mice under different treatment regimens. FIG. 84 is a diagram of the groups including CK-control mice 8400, untreated CK-p25 Tg mice 8402, CK-p25 Tg mice treated with memantine (10 mg/kg daily) 8404, CK-p25 Tg mice exposed to the 40-Hz light flicker (one hour daily for 6 weeks) in accordance with some embodiments 8406, and CK-p25 Tg mice treated with memantine and also exposed to the 40-Hz light flicker 8408. Memantine is a medication used with limited success to treat severe AD by blocking NMDA receptors, thereby acting on the glutamatergic system. DNA double strand breaks (DSB) are one example of DNA damage in eukaryotic cells, causing genomic instability, leading to tumorigenesis and possibly accelerated aging. Phosphorylated histone H2AX (γH2AX) was used as a biomarker of cellular response to DSB. FIG. 99 is bar graph comparing the amount of γH2AX-positive cells in CK-control mice, untreated CK-p25 Tg mice, CK-p25 Tg mice treated with memantine, CK-p25 Tg mice exposed to the 40-Hz light flicker in accordance with some embodiments, and CK-p25 Tg mice treated with both memantine and the 40-Hz light flicker. Cells positive for γH2AX were almost non-existent in CK-control mice, but very high in untreated CK-p25 Tg mice, indicating high amounts of DSB and other DNA damage. Treatment with memantine reduced the amount of γH2AX-positive cells in CK-p25 Tg mice compared to the untreated group. […] Thus, FIG. 99 illustrates how 40-Hz visual flicker treatment in accordance with some embodiments can reduce DNA damage in the visual cortex.

The mark [3] stands for this setting: memantine + 40-Hz light flicker.
Where [4] appears, read: memantine alone, compared to untreated CK-p25 Tg.

Take `CC12CC3CC(C)(C1)CC(N)(C3)C2` [memantine]: in the assay on CK-p25 Tg mice [1] (setting [3]), the thickness of neuronal layer of the insular cortex came out at 848 ± 15 µm, the thickness of cortical layer of the insular cortex was 965 ± 16 µm, the thickness of SS1-neuronal layer came to 650 ± 11 µm and the thickness of SS1-cortical layer was found to be 778 ± 13 µm. For the same compound, in the assay on CK-p25 Tg mice [1] (memantine alone), the thickness of neuronal layer of the insular cortex stood at 850 ± 18 µm, the thickness of cortical layer of the insular cortex was determined as 983 ± 12 µm, the thickness of SS1-neuronal layer stood at 629 ± 9 µm and the thickness of SS1-cortical layer stood at 756 ± 11 µm. Besides, in the assay with CK-p25 Tg mice [2] (setting [3]), the “number of γH2AX-positive cells in hippocampus” value was “significantly increased”, the “number of γH2AX-positive cells in insular cortex” value is recorded as “significantly increased”, the “number of γH2AX-positive cells in somatosensory cortex” value is “significantly increased” and the “number of γH2AX-positive cells in visual cortex” value is given as “significantly increased”. In the assay on CK-p25 Tg mice [2] (setting [4]), the “amount of γH2AX-positive cells in hippocampus” value is “reduced”, the “amount of γH2AX-positive cells in insular cortex” value was “reduced”, the “amount of γH2AX-positive cells in somatosensory cortex” value is listed as “reduced” and the “amount of γH2AX-positive cells in visual cortex” value is “reduced”.
